Where two headings read alike, the source gives them in different places.
Key:
Assay in all cases: Test D pre-/postemergence plant response
Assay type in all cases: in vivo
[1] = tested on: morningglory (Ipomoea coccinea); details: Ipomoea, pre-emergence, Preemergence, scale 0 to 100 (0 no effect, 100 complete control), read-out: Plant response rating, Morningglory
Source text: (§1) Seeds of plant species selected from blackgrass (Alopecurus myosuroides), Italian ryegrass (Lolium multiflorum), winter wheat (Triticum aestivum), galium (catchweed bedstraw, Galium aparine), corn (Zea mays), large (Lg) crabgrass (Digitaria sanguinalis), giant foxtail (Setaria faberii), johnsongrass (Sorghum halepense), lambsquarters (Chenopodium album), morningglory (Ipomoea coccinea), yellow nutsedge (Cyperus esculentus), pigweed (Amaranthus retroflexus), ragweed (common ragweed, Ambrosia elatior), soybean (Glycine max), bamyardgrass (Echinochloa crus-galli), oilseed rape (Brassica napus), waterhemp (common waterhemp, Amaranthus rudis), and velvetleaf (Abutilon theophrasti) were planted into a blend of loam soil and sand and treated preemergence with test chemicals formulated in a non-phytotoxic solvent mixture which included a surfactant. At the same time, plants selected from these crop and weed species and also kochia (Kochia scoparia), wild oat (Avena fatua), and chickweed (common chickweed, Stellaria media) were planted in pots containing Redi-Earth® planting medium (Scotts Company, 14111 Scottslawn Road, Marysville, Ohio 43041) comprising spaghnum peat moss, vermiculite, wetting agent and starter nutrients and treated with postemergence applications of test chemicals formulated in the same manner. Plants ranged in height from 2 to 18 cm (1- to 4-leaf stage) for postemergence treatments. Treated plants and controls were maintained in a greenhouse for 13 to 15 days, after which time all species were compared to controls and visually evaluated. Plant response ratings, summarized in Table D, are based on a scale of 0 to 100 where 0 is no effect and 100 is complete control. A dash (-) response means no test result.

[2] = tested on: soybean (Glycine max); details: Glycine max; for plant injury at 8 g/ha: 8 g ai/ha; for plant injury at 16 g/ha: 16 g ai/ha; for plant injury at 31 g/ha: 31 g ai/ha; for plant injury at 62 g/ha: 62 g ai/ha
Source text: as §1

[3] = tested on: velvetleaf (Abutilon theophrasti); details: Abutilon theophrasti; for pest or weed control at 8 g/ha: 8 g ai/ha; for pest or weed control at 16 g/ha: 16 g ai/ha; for pest or weed control at 31 g/ha: 31 g ai/ha; for pest or weed control at 62 g/ha: 62 g ai/ha
Source text: as §1

[4] = tested on: waterhemp (common waterhemp, Amaranthus rudis); details: Amaranthus tuberculatus; for pest or weed control at 8 g/ha: 8 g ai/ha; for pest or weed control at 16 g/ha: 16 g ai/ha; for pest or weed control at 31 g/ha: 31 g ai/ha; for pest or weed control at 62 g/ha: 62 g ai/ha
Source text: as §1

[5] = tested on: winter wheat (Triticum aestivum); details: Triticum aestivum; for plant injury at 8 g/ha: 8 g ai/ha; for plant injury at 16 g/ha: 16 g ai/ha; for plant injury at 31 g/ha: 31 g ai/ha; for plant injury at 62 g/ha: 62 g ai/ha
Source text: as §1

[6] = post-emergence, Postemergence, scale 0 to 100 (0 no effect, 100 complete control), read-out: Soybean plant response rating
[7] = pre-emergence, Preemergence, scale 0 to 100 (0 no effect, 100 complete control), read-out: Plant response rating, Soybean
[8] = post-emergence, Postemergence, scale 0 to 100 (0 no effect, 100 complete control), read-out: Velvetleaf plant response rating
[9] = pre-emergence, Preemergence, scale 0 to 100 (0 no effect, 100 complete control), read-out: Plant response rating, Velvetleaf
[10] = post-emergence, Postemergence, scale 0 to 100 (0 no effect, 100 complete control), read-out: Waterhemp plant response rating
[11] = pre-emergence, Preemergence, scale 0 to 100 (0 no effect, 100 complete control), read-out: Plant response rating, Waterhemp
[12] = post-emergence, Postemergence, scale 0 to 100 (0 no effect, 100 complete control), read-out: Wheat plant response rating
[13] = pre-emergence, Preemergence, scale 0 to 100 (0 no effect, 100 complete control), read-out: Plant response rating, Wheat

For `FC(F)c1cc(-c2ccccc2Oc2ncc(Cl)cn2)no1` [Compound 35, 5-chloro-2-[2-[5-(difluoromethyl)-3-isoxazolyl]phenoxy]pyrimidine], the pest or weed control at 16 g/ha ([1]; 16 g ai/ha) was 0%, the pest or weed control at 31 g/ha ([1]; 31 g ai/ha) was 55% and the pest or weed control at 62 g/ha ([1]; 62 g ai/ha) was 90%. For the same compound, the plant injury at 8 g/ha ([2]; post-emergence, Postemergence, read-out: Plant response rating (scale 0 to 100), Soybean) was 40%, the plant injury at 16 g/ha [2, 6] was 65% and the plant injury at 31 g/ha [2, 6] was 80%. For the same compound, the plant injury at 62 g/ha ([2]; post-emergence, Postemergence, scale 0 to 100, 0 no effect, 100 complete control, read-out: Plant response rating, Soybean) was 95%, the plant injury at 8 g/ha [2, 7] was 10% and the plant injury at 16 g/ha [2, 7] was 30%. The plant injury at 31 g/ha [2, 7] was 60%, the plant injury at 62 g/ha [2, 7] was 85% and the pest or weed control at 8 g/ha ([3]; post-emergence, Postemergence, read-out: Plant response rating (scale 0 to 100), Velvetleaf) was 30%. For the same compound, the pest or weed control at 16 g/ha [3, 8] was 50%, the pest or weed control at 31 g/ha [3, 8] was 55% and the pest or weed control at 62 g/ha ([3]; post-emergence, Postemergence, scale 0 to 100, 0 no effect, 100 complete control, read-out: Plant response rating, Velvetleaf) was 65%. The pest or weed control at 8 g/ha [3, 9] was 65%, the pest or weed control at 16 g/ha [3, 9] was 85% and the pest or weed control at 31 g/ha [3, 9] was 85%. It also gave a pest or weed control at 62 g/ha [3, 9] of 100%, a pest or weed control at 8 g/ha ([4]; post-emergence, Postemergence, read-out: Plant response rating (scale 0 to 100), Waterhemp) of 75% and a pest or weed control at 16 g/ha [4, 10] of 75%. For the same compound, the pest or weed control at 31 g/ha [4, 10] was 95%, the pest or weed control at 62 g/ha ([4]; post-emergence, Postemergence, scale 0 to 100, 0 no effect, 100 complete control, read-out: Plant response rating, Waterhemp) was 98% and the pest or weed control at 8 g/ha [4, 11] was 100%. It also gave a pest or weed control at 16 g/ha [4, 11] of 100%, a pest or weed control at 31 g/ha [4, 11] of 100% and a pest or weed control at 62 g/ha [4, 11] of 100%. For the same compound, the plant injury at 8 g/ha ([5]; post-emergence, Postemergence, read-out: Plant response rating (scale 0 to 100), Wheat) was 0%, the plant injury at 16 g/ha [5, 12] was 0% and the plant injury at 31 g/ha [5, 12] was 5%. The plant injury at 62 g/ha ([5]; post-emergence, Postemergence, scale 0 to 100, 0 no effect, 100 complete control, read-out: Plant response rating, Wheat) was 10%, the plant injury at 8 g/ha [5, 13] was 0% and the plant injury at 16 g/ha [5, 13] was 0%. For the same compound, the plant injury at 31 g/ha [5, 13] was 5% and the plant injury at 62 g/ha [5, 13] was 15%.

— US10131652B2, “Pyrimidinyloxy benzene derivatives as herbicides” (E. I. DU PONT DE NEMOURS AND COMPANY, priority 2014, dated 2018)
